Test results from patent publication US20040077634A1, “Treatment of diseases characterized by excessive or insufficient cell death” (priority 2001, published 2004).
Residues, ends and D or L forms follow the SMILES beside them. *: point of attachment. Cbz = O=C(OCc1ccccc1)*; CH2F = FC*

Key:
recombinant caspase-9 = molecular target: T1, recombinant caspase-9 (Homo sapiens, UniProt P55211); assay: Recombinant caspase-9 activity, cleavage of LEHD-AFC; format: biochemical
T1 sequence (P55211 1-315 limits assumed): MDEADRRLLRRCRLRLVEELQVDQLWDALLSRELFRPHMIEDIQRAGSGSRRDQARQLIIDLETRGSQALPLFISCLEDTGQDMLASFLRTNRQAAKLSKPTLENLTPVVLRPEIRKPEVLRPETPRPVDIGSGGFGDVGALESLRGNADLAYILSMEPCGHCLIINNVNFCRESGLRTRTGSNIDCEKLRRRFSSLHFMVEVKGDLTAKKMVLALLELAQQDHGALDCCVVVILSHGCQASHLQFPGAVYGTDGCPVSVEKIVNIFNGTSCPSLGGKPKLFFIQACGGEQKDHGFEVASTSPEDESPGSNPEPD
T1 sequence (P55211 331-416 limits assumed): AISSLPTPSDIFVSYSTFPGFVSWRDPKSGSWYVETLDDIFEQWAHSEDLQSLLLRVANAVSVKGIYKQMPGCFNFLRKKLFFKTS
Experimental: The inhibition of the DEVDase activity in the in vitro caspase activation system could be due to a direct inhibition of caspase-9, -3, or -7 activities, or to the inhibition of the apoptosome formation. To test if compounds a, f, and g were specific caspase inhibitors, recombinant caspase-3 and caspase-9 were incubated with the three compounds and the enzymatic activities of caspases were monitored by analysing the cleavage of the caspase-3 substrate DEVD-AFC or the caspase-9 substrate LEHD-AFC, respectively.

MCF-neo cells = assay: TNF-induced cell death of MCF-neo cells; format: cell-based
Experimental: (§1) The ability of compound f to inhibit cell death was examined in MCF-neo and MCF-casp3 cells. […] To analyse the mechanism of the action of compound f in alive cells, MCF-casp3 cells were treated with TNF (5 ng/ml) in the presence of 50 μM compound f and the activity of caspase-3-like proteases was measured by a DEVDase enzyme assay.

MCF-casp3 cells = assay: TNF-induced cell death of MCF-casp3 cells
Experimental: as §1

[1] = test system: DEVDase (caspase-3-like protease); assay: Inhibition of DEVDase in cytochrome c/dATP-activated Hela cytosolic extract (method 1); format: biochemical; settings: compound final concentration 100 μM; 1 mM dATP and 1 μM cytochrome c; DEVD-AFC
Experimental: Hela cells are grown in large petri dishes until subconfluency. Cells are then harvested and washed in PBS. The cell pellet is resuspended in equal volumes of ice-cold isotonic lysisbuffer (SCA; 20 mM Hepes-KOH pH 7.5, 10 mM KCl, 1.5 mM MgCl2, 1 mM EDTA, 1 mM EGTA, 250 mM sucrose, 1 mM DTT, 10 μg/ml aprotinin, 1 μg/ml leupeptin, 1 μg/ml pepstatin A, 100 μg/ml peta-block), incubated on ice for 30 min and lysed by approx. 30 strokes of a dounce homogenizer. The lysate is then centrifuged at 750 g for 10 min, and the supernatant thereof at 10,000 g for 10 min and at 20,000 g for 30 min. The clarified supernatant is removed carefully and stored in aliquots at −80° C. Activation of endogene caspases is induced by addition of 1 mM dATP and 1 μM horse heart cytochrome c to cytosolic extract (protein concentration; 5-10 mg/ml) in the presence of DEVD-AFC and the compound (final concentration 100 μM). Activated DEVD'ases (AFC release) is measured by fluorometry in 96-well plates at 37° C. After end measurements 2× LSB-Mechaptoethanol are added to the samples for assessment of caspase processing by immunoblot analysis. Percent inhibition is calculated as follows: [formula]

recombinant caspase-3 = molecular target: T2, recombinant caspase-3 (Homo sapiens, UniProt P42574); assay: Recombinant caspase-3 activity, cleavage of DEVD-AFC; format: biochemical
T2 sequence (P42574 29-175 limits assumed): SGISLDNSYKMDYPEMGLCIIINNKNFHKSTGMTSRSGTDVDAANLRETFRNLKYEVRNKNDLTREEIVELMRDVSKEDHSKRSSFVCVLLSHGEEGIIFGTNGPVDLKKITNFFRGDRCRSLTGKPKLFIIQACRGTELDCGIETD
T2 sequence (P42574 176-277 limits assumed): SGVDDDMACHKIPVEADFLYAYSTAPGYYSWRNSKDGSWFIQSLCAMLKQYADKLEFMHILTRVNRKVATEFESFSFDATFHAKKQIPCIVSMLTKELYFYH
Experimental: To test if compounds a, f, and g were specific caspase inhibitors, recombinant caspase-3 and caspase-9 were incubated with the three compounds and the enzymatic activities of caspases were monitored by analysing the cleavage of the caspase-3 substrate DEVD-AFC or the caspase-9 substrate LEHD-AFC, respectively.

[2] = test system: caspase-9, caspase-3 and caspase-7 processing; DFF45/ICAD and PARP cleavage; assay: Processing of caspases and caspase substrates in Cc/dATP-stimulated cell extract, Western blotting; format: biochemical; settings: cell extracts stimulated with Cc/dATP; Western blot; dose dependence
Experimental: Activation of endogene caspases is induced by addition of 1 mM dATP and 1 μM horse heart cytochrome c to cytosolic extract (protein concentration; 5-10 mg/ml) in the presence of DEVD-AFC and the compound (final concentration 100 μM). Activated DEVD'ases (AFC release) is measured by fluorometry in 96-well plates at 37° C. After end measurements 2× LSB-Mechaptoethanol are added to the samples for assessment of caspase processing by immunoblot analysis.
Next, the effect of the compounds on the processing of caspases and caspase substrates in the in vitro model system was analysed by Western blotting. Caspase-9, caspase-3 and caspase-7 were processed into p35, p17, and p20 active fragments, respectively, in response to Cc/dATP. Accordingly, Cc/dATP induced a threefold induction in DEVDase activity and cleavage of the caspase-3 substrates DFF45/ICAD and PARP.

[3] = molecular target: T3, apoptosome complex (Apaf-1 and caspase-9) (Homo sapiens, UniProt O14727+P55211); assay: Apoptosome formation: co-immunoprecipitation of Apaf-1 with caspase-9 in cell extract; format: binding; settings: 1 μM zVAD-fmk, 1 hour with Cc/dATP prior to IP
T3 construct: Caspase-9 antibody precipitated practically all caspase-9 present in the cell extract; endogenous in cells; host or cells: cell extract
T3 sequence (O14727 1-1248): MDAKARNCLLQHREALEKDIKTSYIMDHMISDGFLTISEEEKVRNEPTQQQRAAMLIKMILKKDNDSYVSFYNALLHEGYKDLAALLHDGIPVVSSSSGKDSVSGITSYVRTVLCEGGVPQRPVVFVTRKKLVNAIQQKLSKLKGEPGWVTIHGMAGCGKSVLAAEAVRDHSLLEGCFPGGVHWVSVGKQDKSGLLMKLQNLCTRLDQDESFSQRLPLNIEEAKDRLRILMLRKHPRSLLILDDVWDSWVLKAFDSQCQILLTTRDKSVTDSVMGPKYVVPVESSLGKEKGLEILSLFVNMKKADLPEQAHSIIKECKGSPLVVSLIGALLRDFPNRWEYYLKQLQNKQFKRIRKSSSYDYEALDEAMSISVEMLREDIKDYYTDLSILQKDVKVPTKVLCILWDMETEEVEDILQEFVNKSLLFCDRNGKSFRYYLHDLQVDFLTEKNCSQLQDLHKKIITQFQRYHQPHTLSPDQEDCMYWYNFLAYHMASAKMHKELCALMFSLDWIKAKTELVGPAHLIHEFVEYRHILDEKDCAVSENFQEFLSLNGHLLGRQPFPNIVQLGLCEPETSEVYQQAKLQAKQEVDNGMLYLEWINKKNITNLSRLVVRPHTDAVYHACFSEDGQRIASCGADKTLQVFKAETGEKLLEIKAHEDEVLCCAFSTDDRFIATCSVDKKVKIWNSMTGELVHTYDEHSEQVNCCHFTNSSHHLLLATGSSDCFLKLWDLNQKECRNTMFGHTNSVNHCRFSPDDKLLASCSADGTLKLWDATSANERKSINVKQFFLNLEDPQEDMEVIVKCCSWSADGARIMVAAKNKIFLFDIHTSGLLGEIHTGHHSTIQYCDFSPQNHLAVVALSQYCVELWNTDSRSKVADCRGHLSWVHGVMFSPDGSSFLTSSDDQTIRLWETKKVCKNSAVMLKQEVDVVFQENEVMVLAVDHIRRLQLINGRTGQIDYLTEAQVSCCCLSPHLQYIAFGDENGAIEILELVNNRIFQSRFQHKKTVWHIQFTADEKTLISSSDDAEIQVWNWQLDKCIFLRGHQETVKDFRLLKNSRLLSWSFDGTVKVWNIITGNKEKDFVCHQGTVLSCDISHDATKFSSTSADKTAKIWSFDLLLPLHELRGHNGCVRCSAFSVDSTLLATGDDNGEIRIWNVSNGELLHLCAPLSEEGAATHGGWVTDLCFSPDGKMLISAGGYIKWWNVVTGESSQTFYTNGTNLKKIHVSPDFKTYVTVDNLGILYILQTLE
T3 sequence (P55211 1-416): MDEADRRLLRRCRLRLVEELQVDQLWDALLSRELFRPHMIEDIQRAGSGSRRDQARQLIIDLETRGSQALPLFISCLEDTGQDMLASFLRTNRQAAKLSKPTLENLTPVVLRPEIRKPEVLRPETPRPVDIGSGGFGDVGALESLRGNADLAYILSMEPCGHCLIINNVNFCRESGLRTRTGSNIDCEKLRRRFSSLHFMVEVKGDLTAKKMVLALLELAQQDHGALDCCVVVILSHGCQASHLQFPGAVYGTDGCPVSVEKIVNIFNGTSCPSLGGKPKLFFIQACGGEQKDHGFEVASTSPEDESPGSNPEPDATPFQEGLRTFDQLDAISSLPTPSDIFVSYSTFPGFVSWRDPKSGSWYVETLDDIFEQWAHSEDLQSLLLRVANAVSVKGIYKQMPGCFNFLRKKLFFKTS
Experimental: Next, it was tested whether compound f interferes with the formation of apoptosome complex in response to Cc/dATP. Cell extracts were incubated with Cc/dATP in the presence or absence of 100 μM compound f or 1 μM zVAD-fmk for 1 hour prior to the immunoprecipitation (IP) of caspase-9. […] Hsp90, which has been proposed to associate with Apaf-1 and prevent oligomerization and caspase-9 recruitment, was not co-immunoprecipitated with caspase-9.

[4] = 25 to 100 μM, DEVD-AFC substrate
[5] = 25 to 100 μM, LEHD-AFC substrate

CC(=O)N[C@@H](CC(=O)O)C(=O)N[C@@H](CCC(=O)O)C(=O)N[C@H](C(=O)N[C@H](C=O)CC(=O)O)C(C)C [DEVD-CHO, reference compound]
inhibition of recombinant caspase-9 activity (recombinant caspase-9; 0.1 μM DEVD-CHO): almost total inhibition | cell death induced by TNF (MCF-neo cells; 1 ng/ml TNF, 200 μM DEVD-CHO): blocked | protection against TNF (MCF-neo cells; 5 ng/ml TNF, 200 μM DEVD-CHO): significant protection | cell death induced by TNF (MCF-casp3 cells; 1 ng/ml TNF, 200 μM DEVD-CHO): blocked | protection against TNF (MCF-casp3 cells; 5 ng/ml TNF, 200 μM DEVD-CHO): significant protection

COC(=O)c1cc(NC(=O)Nc2cccc(C(F)(F)F)c2)c(O)cc1[N+](=O)[O-] [a, [N-(2-Hydroxy-5-methoxycarbonyl-4-nitrophenyl)-N′-(3-trifluoromethylphenyl)]urea]
% Inhibition [1]: 80% | inhibition of recombinant caspase-3 activity (recombinant caspase-3; [4]): failed to inhibit | inhibition of recombinant caspase-9 activity (recombinant caspase-9; [5]): failed to inhibit | inhibition of caspase-9, -3 and -7 processing and DFF45/ICAD and PARP cleavage [2]: dose-dependent inhibition

CN1[C@H]2CC[C@@H]1[C@@H](c1nc(-c3cccs3)no1)[C@@H](c1ccc3ccccc3c1)C2.Cl [c, (1R,2S,3S)-2-[3-(2-Thienyl)-1,2,4-oxadiazol-5-yl]-3-(2-naphthyl)-tropane hydrochloric acid salt]
% Inhibition [1]: 60% | melting point: 149 to 150 °C

c1ccc(-c2cccc(-n3cnc4ccccc43)c2)cc1 [d, 1-(3-Biphenyl)-benzimidazole]
% Inhibition [1]: 58%

O=c1onc2cnc3cc([N+](=O)[O-])ccc3n12 [e, 7-Nitro-1,2,4-oxadiazolo[3,4-d]benz[b]-1,4-diazin-1-one]
% Inhibition [1]: 63%

O=C(Nc1cccc(C(F)(F)F)c1)Nc1ccc(O)cc1O [g, [N-(2,4-Dihydroxyphenyl)-N′-(3-trifluoromethylphenyl)]urea]
% Inhibition [1]: 74% | inhibition of recombinant caspase-3 activity (recombinant caspase-3; [4]): failed to inhibit | inhibition of recombinant caspase-9 activity (recombinant caspase-9; [5]): failed to inhibit | inhibition of caspase-9, -3 and -7 processing and DFF45/ICAD and PARP cleavage [2]: dose-dependent inhibition

COC(=O)C[C@H](NC(=O)[C@H](C)NC(=O)[C@@H](NC(=O)OCc1ccccc1)C(C)C)C(=O)CF [zVAD-fmk, reference compound] (Cbz-Val-Ala-Asp(OMe)-CH2F)
inhibition of recombinant caspase-3 activity (recombinant caspase-3; 1 μM zVAD-fmk): almost total inhibition | inhibition of recombinant caspase-9 activity (recombinant caspase-9; 1 μM zVAD-fmk): almost total inhibition | co-immunoprecipitation of Apaf-1 with caspase-9 [3]: efficiently co-immunoprecipitated | TNF-induced death (MCF-neo cells; 50 μM zVAD-fmk): blocked completely | TNF-induced death (MCF-casp3 cells; 50 μM zVAD-fmk): blocked completely
